From patent US20120315654A1, “COMPOSITIONS AND METHODS FOR DETECTING CARDIOTOXICITY” (DUKE UNIVERSITY, priority 2011, published 2012)

Legend:
HL-1 cells [1] = test: LDH release cytotoxicity assay in HL-1 cells; assay type: cell-based, murine
Method: Toxicity was assessed by quantifying the amount of lactate dehydrogenase (LDH) present in the culture media using PROMEGA's CYTOTOX96 NON-RADIOACTIVE ASSAY (PROMEGA, Madison, Wis.). Maximum cytotoxicity was determined by measuring the amount of LDH released in cells incubated with the kit's lysis buffer. The percentage of LDH released after DOX treatment was compared with that of controls.

cell-surface CrT protein = test: Cell-surface CrT protein by biotin labeling, avidin isolation and Western blot (4B9); assay type: cell-based, human; conditions: HL-1 cultures, 100 nmol/L DOX
Method: HL-1 cells expressing CrT protein were lysed in an ice-cold solution of 150 mmol/L NaCl; 1% Triton X-100; and 50 mmol/L Tris-HCl, pH 7.4, supplemented with protease (COMPLETE MINI protease inhibitors, ROCHE, Indianapolis, Ind.) and phosphatase inhibitors (5 mmol/L NaF; 1 mmol/L phenylmethylsulphonylfluoride; 2.5 mmol/L Na2P2O7; 50 mmol/L β-glycerol; and 1 mmol/L […], Sigma). Insoluble material was separated by centrifugation at 100,000×g for 30 min at 4° C. Solubilized protein (25 μg per lane) was mixed with Laemmli buffer containing 10% β-mercaptoethanol, separated by SDS-PAGE on a 7% gel for studies of the CrT, and then transferred to nitrocellulose membranes. […] The TATA box-binding protein band was used as a loading control and was detected using a mouse monoclonal antibody (ABCAM, Cambridge, Mass.). […] Protein abundance was quantitated by densitometry using the IMAGEJ application from NIH, and normalized to the signal obtained from CrT protein isolated from cells grown in normal culture media.
HL-1 cultures were grown in 75 cm^2 plates and transiently transfected as described for human CrT cDNA. […] Cell surface CrT protein fraction (biotinylated CrT) was then analyzed by Western blotting using an anti-CrT antibody as described above.

HL-1 cells [2] = test: Caspase 3/7 apoptosis assay in HL-1 cells; assay type: cell-based, murine; conditions: HL-1, 100 nmol/L DOX, up to 48 hrs
Method: Apoptosis was measured using PROMEGA's CASPASE-GLO 3/7 ASSAY SYSTEM (PROMEGA). Briefly, attached cells in a single 24-well plate were washed 3 times with ice-cold PBS and resuspended in 500 μl of 1% TRITON-X100; 10% glycerol; 2 mmol/L EDTA; 137 mmol/L NaCl; and 20 mmol/L Tris, pH 8.0. A mixture of 25 μL of lysate and 25 μL of caspase 3/7-assay reagent was prepared, and sequential luminescent readings were taken every 15 min for 4 hrs. Peak signal readings were normalized to protein content and plotted.

HL-1 cells [3] = test: Quantification of Cr and high-energy phosphates in HL-1 extracts by LC-MS/MS; conditions: HL-1, 100 nmol/L DOX, 24 hrs

## COc1cccc2c1C(=O)c1c(O)c3c(c(O)c1C2=O)C[C@@](O)(C(=O)CO)C[C@@H]3O[C@H]1C[C@H](N)[C@H](O)[C@H](C)O1 [DOX, Doxorubicin]
HL-1 cells [1]; HL-1, 50 nmol/L DOX, through 48 hrs
  LDH release: not significantly elevated
HL-1 cells [1]; HL-1, 100 nmol/L DOX, 24 hrs
  Increase in LDH release compared with controls: approximately 10%
cell-surface CrT protein
  Amount of CrT at the cell surface: decreased
HL-1 cells [2]
  Apoptosis (caspase 3/7 activation): No increase
HL-1 cells [3]
  ADP: 0.50 ± 0.07 μmols/mg prot
  AMP: 0.26 ± 0.08 μmols/mg prot
  ATP: 0.60 ± 0.15 μmols/mg prot
  Cr: 23.01 ± 7.92 μmols/mg prot
  PCr: 5.94 ± 0.12 μmols/mg prot
